From ChEMBL document CHEMBL1156106 (J Med Chem, 2009)

Tests used:
[1] = system: Rattus norvegicus; test: Effect on behavioural activity in rat assessed as cocaine-induced lever response at 10 mg/kg, po pretreated with cocaine for 45 mins by drug-discrimination studies; assay type: functional
[2] = system: Rattus norvegicus; test: Effect on behavioural activity in po dosed rat assessed as cocaine-induced lever response pretreated with cocaine by drug-discrimination studies; assay type: functional
[3] = system: Rattus norvegicus; test: Effect on behavioural activity in rat assessed as cocaine-induced lever response at 2.5 mg/kg, ip pretreated with cocaine for 15 mins by drug-discrimination studies; assay type: functional; conditions: route intraperitoneal
[4] = system: Rattus norvegicus; test: Effect on behavioural activity in rat assessed as cocaine-induced lever response at 5 mg/kg, ip pretreated with cocaine for 15 mins by drug-discrimination studies; assay type: functional; conditions: route intraperitoneal
[5] = system: Rattus norvegicus; test: Effect on behavioural activity in rat assessed as cocaine-induced lever response at 10 mg/kg, po pretreated with cocaine for 360 mins by drug-discrimination studies; assay type: functional
[6] = target: Sodium-dependent serotonin transporter (Homo sapiens, UniProt P31645); test: biochemical; assay type: cell-based, HEK293
[7] = system: Rattus norvegicus; test: Effect on behavioural activity in rat assessed as cocaine-induced lever response at 5 mg/kg, po pretreated with cocaine for 45 mins by drug-discrimination studies; assay type: functional
[8] = system: Rattus norvegicus; test: Effect on behavioural activity in rat assessed as cocaine-induced lever response at 20 mg/kg, po pretreated with cocaine for 45 mins by drug-discrimination studies; assay type: functional
[9] = system: Mus musculus; test: Antidepressant activity in ip dosed mouse assessed as duration of locomotor activity; assay type: functional
[10] = system: Rattus norvegicus; test: Effect on behavioural activity in rat assessed as cocaine-induced lever response at 2.5 mg/kg, po pretreated with cocaine for 45 mins by drug-discrimination studies; assay type: functional
[11] = system: Rattus norvegicus; test: Effect on behavioural activity in rat assessed as cocaine-induced lever response at 2.5 mg/kg, po pretreated with cocaine for 180 mins by drug-discrimination studies; assay type: functional
[12] = system: Rattus norvegicus; test: Effect on behavioural activity in rat assessed as cocaine-induced lever response at 80 mg/kg, po pretreated with cocaine for 360 mins by drug-discrimination studies; assay type: functional
[13] = system: Rattus norvegicus; test: Effect on behavioural activity in rat assessed as cocaine-induced lever response at 5 mg/kg, po pretreated with cocaine for 180 mins by drug-discrimination studies; assay type: functional
[14] = system: Rattus norvegicus; test: Effect on behavioural activity in ip dosed rat assessed as cocaine-induced lever response pretreated with cocaine by drug-discrimination studies; assay type: functional
[15] = system: Rattus norvegicus; test: Effect on behavioural activity in rat assessed as cocaine-induced lever response at 40 mg/kg, po pretreated with cocaine for 180 mins by drug-discrimination studies; assay type: functional
[16] = system: Rattus norvegicus; test: Effect on behavioural activity in rat assessed as cocaine-induced lever response at 40 mg/kg, po pretreated with cocaine for 90 mins by drug-discrimination studies; assay type: functional
[17] = system: Rattus norvegicus; test: Effect on behavioural activity in rat assessed as cocaine-induced lever response at 2.5 mg/kg, po pretreated with cocaine for 90 mins by drug-discrimination studies; assay type: functional
[18] = system: Rattus norvegicus; test: Effect on behavioural activity in rat assessed as cocaine-induced lever response at 25 mg/kg, ip pretreated with cocaine for 15 mins by drug-discrimination studies; assay type: functional; conditions: route intraperitoneal
[19] = system: Rattus norvegicus; test: Effect on behavioural activity in rat assessed as cocaine-induced lever response at 2.5 mg/kg, po pretreated with cocaine for 360 mins by drug-discrimination studies; assay type: functional
[20] = system: Rattus norvegicus; test: Effect on behavioural activity in rat assessed as cocaine-induced lever response at 20 mg/kg, po pretreated with cocaine for 360 mins by drug-discrimination studies; assay type: functional
[21] = system: Rattus norvegicus; test: Effect on behavioural activity in rat assessed as cocaine-induced lever response at 5 mg/kg, po pretreated with cocaine for 90 mins by drug-discrimination studies; assay type: functional
[22] = system: Mus musculus; test: Antidepressant activity in ip dosed mouse assessed as time to reach peak stimulation of locomotor activity; assay type: functional
[23] = system: Rattus norvegicus; test: Effect on behavioural activity in rat assessed as cocaine-induced lever response at 10 mg/kg, ip pretreated with cocaine for 15 mins by drug-discrimination studies; assay type: functional; conditions: route intraperitoneal
[24] = system: Rattus norvegicus; test: Effect on behavioural activity in rat assessed as cocaine-induced lever response at 20 mg/kg, po pretreated with cocaine for 90 mins by drug-discrimination studies; assay type: functional
[25] = system: Rattus norvegicus; test: Effect on behavioural activity in rat assessed as cocaine-induced lever response at 80 mg/kg, po pretreated with cocaine for 180 mins by drug-discrimination studies; assay type: functional
[26] = system: Mus musculus; test: Antidepressant activity in ip dosed mouse assessed as stimulation of locomotor activity relative to cocaine; assay type: functional
[27] = system: Rattus norvegicus; test: Effect on behavioural activity in rat assessed as cocaine-induced lever response at 10 mg/kg, po pretreated with cocaine for 90 mins by drug-discrimination studies; assay type: functional
[28] = system: Rattus norvegicus; test: Effect on behavioural activity in rat assessed as cocaine-induced lever response at 20 mg/kg, po pretreated with cocaine for 180 mins by drug-discrimination studies; assay type: functional
[29] = system: Rattus norvegicus; test: Effect on behavioural activity in rat assessed as cocaine-induced lever response at 80 mg/kg, po pretreated with cocaine for 45 mins by drug-discrimination studies; assay type: functional
[30] = system: Rattus norvegicus; test: Effect on behavioural activity in rat assessed as cocaine-induced lever response at 80 mg/kg, po pretreated with cocaine for 90 mins by drug-discrimination studies; assay type: functional
[31] = system: Rattus norvegicus; test: Effect on behavioural activity in rat assessed as cocaine-induced lever response at 40 mg/kg, po pretreated with cocaine for 360 mins by drug-discrimination studies; assay type: functional
[32] = system: Rattus norvegicus; test: Effect on behavioural activity in rat assessed as cocaine-induced lever response at 40 mg/kg, po pretreated with cocaine for 45 mins by drug-discrimination studies; assay type: functional
[33] = system: Rattus norvegicus; test: Effect on behavioural activity in rat assessed as cocaine-induced lever response at 5 mg/kg, po pretreated with cocaine for 360 mins by drug-discrimination studies; assay type: functional
[34] = system: Mus musculus; test: Antidepressant activity in ip dosed mouse assessed as stimulation of locomotor activity; assay type: functional
[35] = system: Rattus norvegicus; test: Effect on behavioural activity in rat assessed as cocaine-induced lever response at 1 mg/kg, po pretreated with cocaine for 41 mins by drug-discrimination studies; assay type: functional
[36] = system: Rattus norvegicus; test: Effect on behavioural activity in rat assessed as cocaine-induced lever response at 0.25 mg/kg, po pretreated with cocaine for 90 mins by drug-discrimination studies; assay type: functional
[37] = system: Rattus norvegicus; test: Effect on behavioural activity in rat assessed as cocaine-induced lever response at 0.5 mg/kg, po pretreated with cocaine for 180 mins by drug-discrimination studies; assay type: functional
[38] = system: Rattus norvegicus; test: Effect on behavioural activity in rat assessed as cocaine-induced lever response at 0.25 mg/kg, po pretreated with cocaine for 45 mins by drug-discrimination studies; assay type: functional
[39] = system: Rattus norvegicus; test: Effect on behavioural activity in rat assessed as cocaine-induced lever response at 25 mg/kg, po pretreated with cocaine for 45 mins by drug-discrimination studies; assay type: functional
[40] = system: Rattus norvegicus; test: Effect on behavioural activity in rat assessed as cocaine-induced lever response at 1 mg/kg, po pretreated with cocaine for 180 mins by drug-discrimination studies; assay type: functional
[41] = system: Rattus norvegicus; test: Effect on behavioural activity in rat assessed as cocaine-induced lever response at 0.25 mg/kg, po pretreated with cocaine for 180 mins by drug-discrimination studies; assay type: functional
[42] = system: Rattus norvegicus; test: Effect on behavioural activity in rat assessed as cocaine-induced lever response at 25 mg/kg, po pretreated with cocaine for 90 mins by drug-discrimination studies; assay type: functional
[43] = system: Rattus norvegicus; test: Effect on behavioural activity in rat assessed as cocaine-induced lever response at 0.5 mg/kg, po pretreated with cocaine for 90 mins by drug-discrimination studies; assay type: functional
[44] = system: Rattus norvegicus; test: Effect on behavioural activity in rat assessed as cocaine-induced lever response at 1 mg/kg, po pretreated with cocaine for 360 mins by drug-discrimination studies; assay type: functional
[45] = system: Rattus norvegicus; test: Effect on behavioural activity in rat assessed as cocaine-induced lever response at 25 mg/kg, po pretreated with cocaine for 360 mins by drug-discrimination studies; assay type: functional
[46] = system: Rattus norvegicus; test: Effect on behavioural activity in rat assessed as cocaine-induced lever response at 0.25 mg/kg, ip pretreated with cocaine for 15 mins by drug-discrimination studies; assay type: functional; conditions: route intraperitoneal
[47] = system: Rattus norvegicus; test: Effect on behavioural activity in rat assessed as cocaine-induced lever response at 1 mg/kg, po pretreated with cocaine for 90 mins by drug-discrimination studies; assay type: functional
[48] = system: Rattus norvegicus; test: Effect on behavioural activity in rat assessed as cocaine-induced lever response at 0.5 mg/kg, po pretreated with cocaine for 360 mins by drug-discrimination studies; assay type: functional
[49] = system: Rattus norvegicus; test: Effect on behavioural activity in rat assessed as cocaine-induced lever response at 10 mg/kg, po pretreated with cocaine for 180 mins by drug-discrimination studies; assay type: functional
[50] = system: Rattus norvegicus; test: Effect on behavioural activity in rat assessed as cocaine-induced lever response at 0.5 mg/kg, ip pretreated with cocaine for 15 mins by drug-discrimination studies; assay type: functional; conditions: route intraperitoneal
[51] = system: Rattus norvegicus; test: Effect on behavioural activity in rat assessed as cocaine-induced lever response at 0.25 mg/kg, po pretreated with cocaine for 360 mins by drug-discrimination studies; assay type: functional
[52] = system: Rattus norvegicus; test: Effect on behavioural activity in rat assessed as cocaine-induced lever response at 25 mg/kg, po pretreated with cocaine for 180 mins by drug-discrimination studies; assay type: functional
[53] = system: Rattus norvegicus; test: Effect on behavioural activity in rat assessed as cocaine-induced lever response at 1 mg/kg, ip pretreated with cocaine for 15 mins by drug-discrimination studies; assay type: functional; conditions: route intraperitoneal
[54] = system: Rattus norvegicus; test: Effect on behavioural activity in rat assessed as cocaine-induced lever response at 0.5 mg/kg, po pretreated with cocaine for 45 mins by drug-discrimination studies; assay type: functional
[55] = system: Rattus norvegicus; test: Effect on behavioural activity in rat assessed as cocaine-induced lever response at 0.1 mg/kg, ip pretreated with cocaine for 15 mins by drug-discrimination studies; assay type: functional; conditions: route intraperitoneal

Sodium-dependent serotonin transporter, sequence (P31645 whole entry): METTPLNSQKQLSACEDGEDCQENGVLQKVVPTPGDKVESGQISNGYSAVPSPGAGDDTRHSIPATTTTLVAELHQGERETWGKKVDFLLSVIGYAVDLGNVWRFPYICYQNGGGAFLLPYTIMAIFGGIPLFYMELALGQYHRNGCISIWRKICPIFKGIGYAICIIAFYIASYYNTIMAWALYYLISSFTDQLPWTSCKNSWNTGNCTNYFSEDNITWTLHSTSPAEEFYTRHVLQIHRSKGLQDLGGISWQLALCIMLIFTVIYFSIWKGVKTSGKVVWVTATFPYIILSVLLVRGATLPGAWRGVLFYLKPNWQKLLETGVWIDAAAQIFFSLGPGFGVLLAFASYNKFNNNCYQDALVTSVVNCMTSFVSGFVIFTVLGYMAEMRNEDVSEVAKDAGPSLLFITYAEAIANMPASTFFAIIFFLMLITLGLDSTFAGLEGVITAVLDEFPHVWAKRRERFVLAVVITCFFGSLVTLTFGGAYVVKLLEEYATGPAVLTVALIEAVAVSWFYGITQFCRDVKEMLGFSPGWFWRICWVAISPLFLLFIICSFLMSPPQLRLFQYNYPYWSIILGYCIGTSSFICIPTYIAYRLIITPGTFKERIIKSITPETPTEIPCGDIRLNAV

CCCC(NC(C)(C)C)C(=O)c1cccc(Cl)c1 (stereo not given)
Activity [1]: 33%
ED50 [2]: 23.2 mg/kg
Activity [3]: 0.2%
Activity [4]: 17.2%
Activity [5]: 0%
Ki [6]: > 10 µM
Activity [7]: 17%
Activity [8]: 33%
Time [9]: 210 min
Activity [10]: 0%
Activity [11]: 0%
Activity [12]: 1%
Activity [13]: 22%
ED50 [14]: 7.8 mg/kg
Activity [15]: 17%
Activity [16]: 17%
Activity [17]: 0%
Activity [18]: 83.3%
Activity [19]: 0%
Activity [20]: 0%
Activity [21]: 0%
Time to peak locomotor stimulation [22]: 90 min
Activity [23]: 33.3%
Activity [24]: 33%
Activity [25]: 50%
Activity [26]: 108%
Activity [27]: 0%
Activity [28]: 0%
Activity [29]: 100%
Activity [30]: 100%
Activity [31]: 16%
Activity [32]: 50%
Activity [33]: 0%
ED50 [34]: 15.5 mg/kg

CC(NC1CC1)C(=O)c1cccc(Cl)c1 (stereo not given)
Activity [1]: 74%
Activity [35]: 0%
ED50 [2]: 12.8 mg/kg
Activity [36]: 0%
Activity [3]: 39.5%
Activity [4]: 67.2%
Activity [37]: 0%
Activity [5]: 0%
Activity [7]: 34%
Time [9]: 350 min
Activity [10]: 34%
Activity [38]: 0%
Activity [39]: 67%
Activity [11]: 34%
Activity [13]: 0%
Activity [40]: 0%
Activity [41]: 0%
Activity [17]: 0%
Activity [42]: 83%
Activity [18]: 66.3%
Activity [19]: 0%
Activity [43]: 16%
Activity [44]: 0%
Activity [45]: 0%
Activity [21]: 0%
Activity [46]: 24%
Time to peak locomotor stimulation [22]: 0 min
Activity [47]: 0%
Activity [23]: 66.7%
Activity [48]: 2%
Activity [26]: 82%
Activity [49]: 33%
Activity [27]: 33%
Activity [50]: 63%
Activity [51]: 34%
Activity [52]: 99%
Activity [53]: 21.5%
Activity [33]: 0%
Activity [54]: 1%
ED50 [34]: 16.6 mg/kg
Activity [55]: 9%
